Experimental data from patent US20090226901A1, “Method of evaluating or selecting agents for preventing or improving pigmented spots” (Kao Corporation, priority 2008, published 2009).

Assays:
[1] = test system: endothelin-1 gene; test: endothelin-1 gene expression in cultured human epidermal keratinocytes, quantitative PCR; type: cell-based; conditions: cultured epidermal cells
Description: (§1) Human epidermal cells derived from neonatal foreskin were purchased from Kurabo Industries Ltd., and were precultured in a serum-free basal growth medium (EpiLife, product of Kurabo Industries Ltd.) in an atmosphere of 5% (v/v) CO2 at 37° C. The thus-precultured epidermal cells were inoculated into a 6-well culture plate (product of Falcon) (1.0×10^5 cells/well). Twenty-four hours thereafter, the cells were cultured in a growth medium without including BPE (bovine pituitary gland extract) and hEGF (human epidermal growth factor), and 24 hours thereafter, 5-fluorouracil (5-FU, product of Calbiochem), which is a conventionally known p53 activator, was added at a concentration of 1 or 10 μg/mL. After 48-hour treatment, total RNA was extracted by use of TRIzol® Reagent (product of Invitrogen Corporation). Specifically, each well of the culture plate was washed with PBS, and TRIzol® Reagent (1 mL) was added to the well. […]
(§2) The thus-extracted total RNA was subjected to reverse transcription to synthesize cDNA, and the thus-synthesized cDNA was employed for gene expression analysis through quantitative PCR using TaqMan® probe. In the present Example, specifically, expression levels of SCF (KITLG) gene (Assay ID: Hs00241497_m1) and endothelin-1 gene (Assay ID: Hs00174961_m1) were measured. […]

[2] = test system: SCF (KITLG) gene; test: SCF (KITLG) gene expression in cultured human epidermal keratinocytes, quantitative PCR; type: cell-based; conditions: cultured epidermal cells
Description: as §1, §2

[3] = test system: HCT116 cells; conditions: HCT116 human colon cancer cell line; Cell, 124, 207-219, 2006; cited from earlier work
[4] = test system: SCF (KITLG) gene; test: SCF (KITLG) gene expression in organ-cultured skin tissue of pigmentatio petaloides actinica, RT-PCR; type: cell-based, human; conditions: 10 μM PFT, 72 hours organ culture, epidermis, relative to control spot sample, FIG. 6
Excerpt: (§3) Through a contract laboratory of Stephens & Associates (Carrollton, Tex.), subjects having spots were recruited. A dermatologist, contractor of the laboratory, collected samples of skin tissue with pigmentatio petaloides actinica from the shoulder (at two sites for each subject) in two subjects at with a biopsy trepan (diameter: 4 mm). Thereafter, the thus-collected skin biopsy samples were immersed in Dulbecco's modified Eagle's medium (DMEM), and transported to the Cincinnati branch of Biological Science Americas Laboratories while being maintained at about 4 to 10° C. […]
(§4) Thereafter, total RNA was extracted by use of RNeasy micro kit (Qiagen), and cDNA was synthesized through a customary method by means of ThermoScript RT-PCR Systems (Invitrogen, Carlsbad, Calif.). Probes specific to tyrosinase mRNA, SCF (KITLG) mRNA, and endothelin-1 mRNA were obtained from TaqMan® Gene Expression Assays (Applied Biosystems) (Assay IDs: Hs00165976_m1, Hs00241497_m1, and Hs00174961_ml), and real-time quantitative RT-PCR was carried out by means of ABI PRISM 7300 sequence detection system (Applied Biosystems). […] The expression level of each gene in the PFT-treated spot sample was calculated relative to that of the gene in a control spot sample (taken as 1).

[5] = test system: endothelin-1 gene; test: endothelin-1 gene expression in organ-cultured skin tissue of pigmentatio petaloides actinica, RT-PCR; type: cell-based, human; conditions: 10 μM PFT, 72 hours organ culture, epidermis, relative to control spot sample, FIG. 6
Excerpt: as §3, §4

[6] = test system: tyrosinase gene; test: tyrosinase gene expression in organ-cultured skin tissue of pigmentatio petaloides actinica, RT-PCR; type: cell-based, human; conditions: 10 μM PFT, 72 hours organ culture, epidermis, relative to control spot sample, FIG. 6
Excerpt: as §3, §4

[7] = test system: three-dimensional cultured skin model (MEL-300A); test: melanin content of three-dimensional cultured skin model (MEL-300A); type: cell-based, human; conditions: culturing for 14 days, absorbance at 405 nm, relative to control (100%), FIG. 5
Description: A three-dimensional cultured skin model (MEL-300A) was purchased from Kurabo Industries Ltd. Immediately after the product had been obtained, a tissue cup was transferred into a 6-well culture plate (product of Falcon), and cultured overnight in a long-term maintenance medium (EPI-100-NMM-113, product of Kurabo Industries Ltd.) (1 mL), in an atmosphere of […] at 37° C. Subsequently, pifithrin-α (PFT), which is a conventionally known p53 inhibitor, was added, followed by culturing for 14 days. Culturing was carried out by allowing the tissue cup to stand still on a sterilized stainless steel washer (product of Kurabo Industries Ltd.) and by use of a long-term maintenance medium (5 mL). Medium was exchanged every three days. After culturing, skin tissue was removed from the tissue cup with tweezers, and then washed thrice with PBS, once with 5% (v/v) trichloroacetic acid, and once with a mixture of diethyl ether and ethanol (1:3 by volume). Thereafter, the thus-washed skin tissue was incubated at 50° C. for two hours, to thereby dry the tissue. Subsequently, the tissue was dissolved in 2N aqueous sodium hydroxide solution (2N) (200 μL), followed by centrifugation at 15,000 rpm for 15 minutes. Thereafter, the culture supernatant was recovered, and absorbance was measured at 405 nm, to thereby calculate the melanin content in the tissue.

[8] = 5-FU 1 or 10 μg/mL, 48-hour treatment, FIG. 3
[9] = PFT 1 or 10 μM, 24-hours culturing, FIG. 4

Row | expression level of tyrosinase gene [6] | SMILES | expression of endothelin-1 gene [1, 8] | expression of SCF (KITLG) gene [2, 8] | expression level of SCF (KITLG) gene [3] | expression level of SCF (KITLG) gene [4] | expression of endothelin-1 gene [1, 9] | expression of SCF (KITLG) gene [2, 9] | expression of endothelin-1 gene [5] | melanin contents [7]
1 | – | O=c1[nH]cc(F)c(=O)[nH]1 [5-fluorouracil] | significantly induced | significantly induced | induced | – | – | – | – | –
2 | significantly decreased | Cc1ccc(C(=O)Cn2c3c(sc2=N)CCCC3)cc1 [pifithrin-α] | – | – | – | significantly decreased | significantly decreased | significantly decreased | tended to be significantly decreased | decreased the melanin contents of the three-dimensional cultured skin model in a dose-dependent manner
